Test results: BindingDB's records for doi:10.1016/j.bmcl.2006.12.054 (Cephalon, 2007)

Molecular target: Vascular endothelial growth factor receptor 2 (Homo sapiens, UniProt P35968)
Experiment: Inhibition of human cytoplasmic VEGFR2 expressed in baculovirus after 15 mins by time resolved fluorescence assay

Sequence of Vascular endothelial growth factor receptor 2 (P35968 whole entry): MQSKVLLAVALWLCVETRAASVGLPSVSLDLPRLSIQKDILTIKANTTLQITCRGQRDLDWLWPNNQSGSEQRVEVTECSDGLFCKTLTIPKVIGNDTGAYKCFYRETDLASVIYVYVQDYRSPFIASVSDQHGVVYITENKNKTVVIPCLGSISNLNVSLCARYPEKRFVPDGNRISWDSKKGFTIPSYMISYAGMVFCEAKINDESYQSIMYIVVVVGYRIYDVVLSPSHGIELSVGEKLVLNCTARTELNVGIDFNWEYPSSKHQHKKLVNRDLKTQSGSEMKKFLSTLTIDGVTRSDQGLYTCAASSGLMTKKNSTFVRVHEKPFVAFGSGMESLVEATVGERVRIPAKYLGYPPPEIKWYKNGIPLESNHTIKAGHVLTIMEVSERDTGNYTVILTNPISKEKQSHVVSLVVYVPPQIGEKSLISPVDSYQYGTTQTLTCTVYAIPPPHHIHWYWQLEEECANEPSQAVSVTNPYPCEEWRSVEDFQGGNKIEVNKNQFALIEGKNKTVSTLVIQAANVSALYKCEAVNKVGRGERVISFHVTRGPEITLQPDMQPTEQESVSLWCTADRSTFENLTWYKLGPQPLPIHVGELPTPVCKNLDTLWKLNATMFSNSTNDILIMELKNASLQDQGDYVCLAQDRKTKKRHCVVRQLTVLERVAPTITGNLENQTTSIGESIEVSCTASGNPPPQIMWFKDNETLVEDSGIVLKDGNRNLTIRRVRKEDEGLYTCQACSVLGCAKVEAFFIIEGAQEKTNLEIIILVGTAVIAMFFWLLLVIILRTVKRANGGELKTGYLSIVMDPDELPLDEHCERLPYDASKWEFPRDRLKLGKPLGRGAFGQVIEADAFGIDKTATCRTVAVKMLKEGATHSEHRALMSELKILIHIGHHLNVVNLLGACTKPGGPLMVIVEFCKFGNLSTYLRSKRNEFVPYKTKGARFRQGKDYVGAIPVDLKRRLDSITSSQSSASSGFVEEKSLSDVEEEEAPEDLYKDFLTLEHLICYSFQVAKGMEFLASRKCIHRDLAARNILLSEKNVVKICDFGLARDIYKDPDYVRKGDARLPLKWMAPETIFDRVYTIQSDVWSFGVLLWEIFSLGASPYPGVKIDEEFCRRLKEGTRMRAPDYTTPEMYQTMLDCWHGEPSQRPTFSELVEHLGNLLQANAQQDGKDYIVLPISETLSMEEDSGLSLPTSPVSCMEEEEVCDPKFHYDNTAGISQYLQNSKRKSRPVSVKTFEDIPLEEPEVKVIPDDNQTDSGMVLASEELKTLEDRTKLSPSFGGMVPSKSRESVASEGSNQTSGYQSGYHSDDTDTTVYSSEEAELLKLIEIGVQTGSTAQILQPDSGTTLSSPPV

| IC50 [nM] | Compound |
| --- | --- |
| > 300 | C=c1nns/c1=c1\[nH][nH]c(=O)c1=Cc1cn(C)c2ccc(C#N)cc12 [1-methyl-3-((3-(4-methyl-1,2,3-thiadiazol-5-yl)-5-oxo-1H-pyrazol-4(5H)-ylidene)methyl)-1H-indole-5-carbonitrile] |
| > 300 | C=c1nns/c1=c1\[nH][nH]c(=O)c1=Cc1c[nH]c2ccc(Cl)cc12 [4-((5-chloro-1H-indol-3-yl)methylene)-3-(4-methyl-1,2,3-thiadiazol-5-yl)-1H-pyrazol-5(4H)-one] |
